# Assay: Inhibition of HTLV1 protease assessed as decrease in substrate concentration by HPLC analysis
# Design: species or system Human T-cell leukemia virus type I
row,IC50 [µM],SMILES
1,550,CC[C@@H](C)[C@@H](NC(=O)[C@@H](CC(C)C)[C@@H](O)C[C@H]1CCCN1C(=O)NCc1ccccc1)C(=O)N[C@@H](C(=O)N1CCC[C@@H]1C(=O)N1CCC[C@@H]1C(N)=O)C(C)C
2,160,CC[C@@H](C)[C@@H](NC(=O)[C@@H](CC(C)C)[C@H](O)C[C@H]1CCCN1C(=O)NCc1ccccc1)C(=O)N[C@@H](C(=O)N1CCC[C@@H]1C(=O)N1CCC[C@@H]1C(N)=O)C(C)C
3,> 10000,CC[C@H](C)[C@@H](NC[C@H](O)[C@@H](CC(C)C)NC(=O)[C@H]1CCCN1C(C)=O)C(=O)N[C@@H](C(=O)N1CCC[C@@H]1C(N)=O)C(C)C
4,350,CC[C@@H](C)[C@@H](NC(=O)[C@H](CC(C)C)[C@H](O)C[C@H]1CCCN1C(=O)NCc1ccccc1)C(=O)N[C@@H](C(=O)N1CCC[C@@H]1C(=O)N1CCC[C@@H]1C(N)=O)C(C)C
5,1500,CC[C@@H](C)[C@@H](NC(=O)[C@H](CC(C)C)[C@@H](O)C[C@H]1CCCN1C(=O)NCc1ccccc1)C(=O)N[C@@H](C(=O)N1CCC[C@@H]1C(=O)N1CCC[C@@H]1C(N)=O)C(C)C
6,> 10000,CC[C@H](C)[C@@H](NC[C@H](O)[C@@H](CC(C)C)NC(C)=O)C(=O)N[C@@H](C(=O)N1CCC[C@@H]1C(N)=O)C(C)C
